# In the supplement of paper PMC11451515:
# Tested on: P12-Ichikawa
# Test: cell viability relative to DMSO control; higher = less cytotoxic
# Conditions: 48 h
# Method in brief: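 In 1536-well plates, 5 μl of leukemia cells were seeded per well: 500 cells/well for NOMO1 or SEM and 1000 cells/well for P12-Ichikawa. Each line had first been adapted for at least four passages in each medium. Library compounds in DMSO were pin-dosed at 11 threefold concentrations between 47 μM and 0.79 nM, and CellTiter-Glo One luminescence was read after 48 h at 37°C. Viability is a per-plate percentage relative to DMSO wells, with cell-free wells as background.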
# [1] = HPLM + 10% dialyzed FBS, 0.000781 µM
# [2] = HPLM + 10% dialyzed FBS, 0.00234 µM
# [3] = HPLM + 10% dialyzed FBS, 0.00702 µM
# [4] = HPLM + 10% dialyzed FBS, 0.0211 µM
# [5] = HPLM + 10% dialyzed FBS, 0.0632 µM
# [6] = HPLM + 10% dialyzed FBS, 0.19 µM
# [7] = HPLM + 10% dialyzed FBS, 0.569 µM
# [8] = HPLM + 10% dialyzed FBS, 1.71 µM
# [9] = HPLM + 10% dialyzed FBS, 5.12 µM
# [10] = HPLM + 10% dialyzed FBS, 15.4 µM
# [11] = HPLM + 10% dialyzed FBS, 46.1 µM
# [12] = RPMI 5 mM glucose + 10% FBS, 0.000781 µM
# [13] = RPMI 5 mM glucose + 10% FBS, 0.00234 µM
# [14] = RPMI 5 mM glucose + 10% FBS, 0.00702 µM
# [15] = RPMI 5 mM glucose + 10% FBS, 0.0211 µM
# [16] = RPMI 5 mM glucose + 10% FBS, 0.0632 µM
# [17] = RPMI 5 mM glucose + 10% FBS, 0.19 µM
# [18] = RPMI 5 mM glucose + 10% FBS, 0.569 µM
# [19] = RPMI 5 mM glucose + 10% FBS, 1.71 µM
# [20] = RPMI 5 mM glucose + 10% FBS, 5.12 µM
# [21] = RPMI 5 mM glucose + 10% FBS, 15.4 µM
# [22] = RPMI 5 mM glucose + 10% FBS, 46.1 µM
# [23] = RPMI 5 mM glucose + 10% dialyzed FBS, 0.000781 µM
# [24] = RPMI 5 mM glucose + 10% dialyzed FBS, 0.00234 µM
# [25] = RPMI 5 mM glucose + 10% dialyzed FBS, 0.00702 µM
# [26] = RPMI 5 mM glucose + 10% dialyzed FBS, 0.0211 µM
# [27] = RPMI 5 mM glucose + 10% dialyzed FBS, 0.0632 µM
# [28] = RPMI 5 mM glucose + 10% dialyzed FBS, 0.19 µM
# [29] = RPMI 5 mM glucose + 10% dialyzed FBS, 0.569 µM
# [30] = RPMI 5 mM glucose + 10% dialyzed FBS, 1.71 µM
# [31] = RPMI 5 mM glucose + 10% dialyzed FBS, 5.12 µM
# [32] = RPMI 5 mM glucose + 10% dialyzed FBS, 15.4 µM
# [33] = RPMI 5 mM glucose + 10% dialyzed FBS, 46.1 µM
Compound,cell viability [1],cell viability [2],cell viability [3],cell viability [4],cell viability [5],cell viability [6],cell viability [7],cell viability [8],cell viability [9],cell viability [10],cell viability [11],cell viability [12],cell viability [13],cell viability [14],cell viability [15],cell viability [16],cell viability [17],cell viability [18],cell viability [19],cell viability [20],cell viability [21],cell viability [22],cell viability [23],cell viability [24],cell viability [25],cell viability [26],cell viability [27],cell viability [28],cell viability [29],cell viability [30],cell viability [31],cell viability [32],cell viability [33]
COc1ncnc(N[S+](=O)([O-])c2ccc(N)cc2)c1OC,113%,117%,116%,112%,109%,92.6%,79.8%,72%,25.8%,22.2%,27%,115%,111%,116%,124%,101%,85.3%,73.3%,59.3%,43.8%,12.9%,11.6%,108%,116%,113%,103%,97.1%,86.3%,66.6%,53.8%,39.4%,18.7%,14.8%
CN(C)c1nc(Cc2ccc(NC(=O)c3ccc4ccccc4c3)cc2)nc(Cl)c1CC(=O)O,112%,112%,101%,101%,108%,124%,104%,99.4%,84.8%,84.8%,69.3%,117%,107%,124%,115%,117%,114%,107%,98.7%,87.2%,69.8%,73.6%,106%,113%,113%,111%,106%,107%,105%,104%,84%,68.7%,61.5%
CN1C(=O)C[C@H](C(=O)N[C@@H](Cc2cnc[nH]2)C(=O)N2CCC[C@H]2C(N)=O)NC1=O,–,–,–,–,–,–,–,–,–,–,–,–,–,–,–,–,–,–,–,–,–,–,114%,128%,121%,115%,132%,123%,118%,120%,119%,119%,90.6%
O=C(Oc1ccc([N+](=O)[O-])cc1)N1CCC(C(O)(c2ccc3c(c2)OCO3)c2ccc3c(c2)OCO3)CC1,90%,95.5%,90.2%,98.7%,92%,99.4%,102%,91.4%,93.6%,79.3%,69.3%,91.8%,85%,90.3%,99.3%,91.3%,91.9%,99.3%,90.3%,68.5%,93.7%,93.1%,75.9%,88.5%,86.3%,88.6%,90.2%,90.3%,86.4%,91.8%,73.5%,91.1%,84.9%
Nc1cccc2c1CN([C@H]1CCC(=O)NC1=O)C2=O,115%,112%,114%,117%,109%,114%,107%,103%,107%,88.8%,96.7%,109%,124%,118%,118%,124%,113%,116%,99.6%,114%,80.8%,92.7%,112%,114%,105%,107%,107%,107%,97.4%,102%,94.8%,63.3%,80.8%
CC1(N2CCC(n3c([C@@H]4CCCNC4)nc4ccccc43)CC2)CCCCCCC1,101%,95.4%,106%,111%,113%,115%,113%,115%,108%,88%,55.6%,98.3%,95%,104%,115%,110%,111%,124%,118%,110%,86.9%,67.9%,97.1%,101%,104%,115%,112%,107%,110%,109%,109%,81.7%,65.9%
COc1cc2c(Nc3ccc(Br)cc3F)ncnc2cc1OCC1CCN(C)CC1,87.8%,93.5%,91.3%,91.1%,91.9%,88.4%,87.8%,82.8%,89.9%,73.9%,86.9%,82%,81.8%,79%,87.7%,87.3%,81.7%,85.2%,84.8%,80.6%,80.9%,83%,88.7%,86.1%,84.6%,83.3%,88.3%,88.8%,84.5%,84.4%,76.9%,68%,79.8%
CC[C@@]1(O)C(=O)OC\C2=C1\C=C\3N(CC4=C3N=C5C=CC=CC5=C4)C2=O,122%,120%,107%,86.1%,13.3%,10.1%,7.26%,5.09%,4.83%,3.78%,5.54%,115%,113%,116%,69.9%,10.9%,7.97%,6.35%,4.58%,3.68%,3.91%,6.1%,115%,115%,107%,59.8%,16.8%,9.84%,7.6%,5.62%,4.44%,4.32%,6.06%
Oc1cccc(-c2nc(N3CCOCC3)c3oc4ncccc4c3n2)c1,118%,119%,123%,123%,117%,121%,131%,118%,116%,79.2%,73.3%,122%,114%,132%,129%,110%,102%,80.8%,79%,108%,94.6%,75.3%,121%,123%,119%,126%,113%,110%,98.4%,81.5%,114%,108%,95.7%
CN(C)CCN(C)C(=O)c1ccc(NC(=O)Nc2ccc(-c3nc(N4CCOCC4)c4ccn(CC(F)(F)F)c4n3)cc2)cc1,114%,120%,112%,122%,106%,100%,101%,89.7%,90.8%,90.8%,83.2%,115%,114%,121%,118%,85%,77.9%,77.7%,67.6%,64.9%,65.4%,69.9%,–,–,–,–,–,–,–,–,–,–,–
O=C(c1ccc(F)c(F)c1Nc1ccc(I)cc1F)N1CC(O)([C@@H]2CCCCN2)C1,93.9%,102%,102%,111%,109%,108%,100%,99%,93.6%,12.6%,11.1%,97.3%,102%,112%,97.8%,101%,104%,87.5%,93%,82.7%,12.8%,7.93%,88.6%,114%,115%,116%,111%,108%,114%,105%,96.2%,36.8%,14.8%
COc1cc([C@H]2Oc3cc([C@H]4Oc5cc(O)cc(O)c5C(=O)[C@@H]4O)ccc3O[C@@H]2CO)ccc1O,108%,118%,106%,109%,118%,119%,112%,110%,105%,99.8%,99.8%,113%,112%,125%,109%,113%,104%,98.9%,112%,116%,101%,94.2%,102%,109%,115%,105%,111%,106%,103%,101%,96.7%,100%,90.1%
O=C(Nc1ncc(SCCN2CCCC2)s1)[C@]1(c2ccc([S+](=O)([O-])C3CC3)cc2)C[C@H]1C1CCCCC1,117%,115%,121%,121%,116%,113%,116%,108%,111%,96.5%,68.8%,120%,120%,111%,123%,108%,123%,105%,112%,105%,108%,43.6%,111%,122%,114%,121%,109%,118%,120%,109%,108%,88.3%,35.9%
CC1=C(CC(=O)O)c2cc(F)ccc2/C1=C\c1ccc([S+](C)[O-])cc1 (centres undefined),121%,110%,116%,123%,124%,117%,116%,109%,108%,106%,101%,–,–,–,–,–,–,–,–,–,–,–,121%,120%,127%,125%,112%,122%,109%,108%,111%,111%,105%
COc1ccc(C2Sc3ccccc3N(CCN(C)C)C(=O)C2OC(C)=O)cc1 (centres undefined),102%,115%,103%,108%,112%,121%,112%,102%,109%,112%,93.9%,101%,112%,110%,108%,104%,112%,110%,107%,99.8%,103%,98.3%,122%,108%,108%,112%,113%,112%,110%,109%,104%,105%,92.8%
N[S+](=O)([O-])c1cccc2c1C(=O)c1cccc(O)c1C2=O,108%,106%,115%,111%,121%,114%,114%,118%,105%,80.9%,4.7%,102%,105%,108%,112%,116%,123%,106%,111%,96.7%,102%,3.97%,98.9%,95.8%,110%,106%,113%,121%,104%,112%,94.3%,92.8%,3.3%
